Test results published in patent publication US9127255B2, “3-dimensional scaffolds for improved differentiation of pluripotent stem cells to hepatocytes” (Takara Bio Europe AB, priority 2010, dated 2015).

Test system: CYP2C9
Experiment: CYP2C9 activity and induction in cells cultured in Alvatex (ReInnervate) scaffolds, OH-Diclophenac by HPLC
Assay type: cell-based, human
Settings: cells cultured on 3D surfaces (FIG. 8)
Procedure: Cell line SA461 (Cellartis AB) was cultured and differentiated according to conditions in Examples 1 and 2, experiment 083 and then according to the scheme below: Cells were induced with 1 mM Phenobarbital, 10 μM dexamethasone and 5 μM β-naphthoflavone. To each well, either induction or control medium was added (400 ul/well 2D cultures, 2000 ul/well in […] scaffolds) and the plate was incubated 24 h. After 24 hours of induction, all wells were washed 2× in DPBS+/+ and activity assay medium was added, 200 ul/well in 2D controls and 1000 ul/well in ReInnervate scaffolds. […] After 16 hours incubation at 37 C, the medium was transferred to eppendorf tubes and spun down for 20 min at 4° C. and 10000 g. […] Figures show CYP response in hESC-derived hepatocytes cultured either on […]) or 2D control, cells induced with Diclofenac to mimic hepatic liver activity. Activity assay performed at day 23 and day 29 as indicated.

## O=C(O)Cc1ccccc1Nc1c(Cl)cccc1Cl [diclophenac]
  CYP2C9 activity when cells were treated: elevated
